Assay results taken from the supplement of paper PMC10307832.

Assays:
Assay in all cases: relative viability (nuclei count vs DMSO), 5 days (fraction); higher = more cells survive
Wnt-C59 + Tozasertib = compound: CC1=NC=CC(=C1)C2=CC=C(C=C2)CC(=O)NC3=CC=C(C=C3)C4=CN=CC=C4 [Wnt-C59] + Cc1cc(Nc2cc(N3CCN(C)CC3)nc(Sc3ccc(NC(=O)C4CC4)cc3)n2)n[nH]1 [Tozasertib] (partner 0.1 µM)
How it was run: (§1)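 Lung cancer cell lines were pin-tool dosed in 1536-well plates on the day after seeding, with either a lone drug or a fixed anchor-drug dose plus five library-drug doses (not always all listed) in √10 steps. Nuclei were counted on 4× images after 5 days. Relative viability is the ratio of treated-well to vehicle-well nuclei counts, with each value a median of duplicate plates.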

Lapatinib + Luminespib = compound: CS(=O)(=O)CCNCc1ccc(-c2ccc3ncnc(Nc4ccc(OCc5cccc(F)c5)c(Cl)c4)c3c2)o1 [Lapatinib] + CCNC(=O)c1noc(-c2cc(C(C)C)c(O)cc2O)c1-c1ccc(CN2CCOCC2)cc1 [Luminespib] (partner 0.01 µM)
How it was run: as §1

Lapatinib + Vorinostat = compound: CS(=O)(=O)CCNCc1ccc(-c2ccc3ncnc(Nc4ccc(OCc5cccc(F)c5)c(Cl)c4)c3c2)o1 [Lapatinib] + O=C(CCCCCCC(=O)Nc1ccccc1)NO [Vorinostat] (partner 1 µM)
How it was run: as §1

Wnt-C59 + Alpelisib = compound: CC1=NC=CC(=C1)C2=CC=C(C=C2)CC(=O)NC3=CC=C(C=C3)C4=CN=CC=C4 [Wnt-C59] + Cc1nc(NC(=O)N2CCC[C@H]2C(N)=O)sc1-c1ccnc(C(C)(C)C(F)(F)F)c1 [Alpelisib] (partner 2 µM)
How it was run: as §1

Cell Line	relative viability (Wnt-C59 + Tozasertib; first compound 0.001 µM)	relative viability (Wnt-C59 + Tozasertib; first compound 0.01 µM)	relative viability (Wnt-C59 + Tozasertib; first compound 0.03162 µM)	relative viability (Wnt-C59 + Tozasertib; first compound 0.1 µM)	relative viability (Lapatinib + Luminespib; first compound 0.02 µM)	relative viability (Lapatinib + Luminespib; first compound 0.06325 µM)	relative viability (Lapatinib + Luminespib; first compound 0.2 µM)	relative viability (Lapatinib + Luminespib; first compound 0.6325 µM)	relative viability (Lapatinib + Luminespib; first compound 2 µM)	relative viability (Lapatinib + Vorinostat; first compound 0.02 µM)	relative viability (Lapatinib + Vorinostat; first compound 0.06325 µM)	relative viability (Lapatinib + Vorinostat; first compound 0.2 µM)	relative viability (Lapatinib + Vorinostat; first compound 0.6325 µM)	relative viability (Lapatinib + Vorinostat; first compound 2 µM)	relative viability (Wnt-C59 + Alpelisib; first compound 0.001 µM)	relative viability (Wnt-C59 + Alpelisib; first compound 0.01 µM)	relative viability (Wnt-C59 + Alpelisib; first compound 0.03162 µM)	relative viability (Wnt-C59 + Alpelisib; first compound 0.1 µM)
SK-MES-1	0.94	0.913	0.944	0.824	0.738	0.665	0.625	0.482	0.326	0.967	0.98	1.15	1.18	0.369	0.841	0.909	0.833	0.965
Calu-6	–	–	–	–	–	–	–	–	–	–	–	–	–	–	0.898	0.945	1.15	0.938
NCI-H838	0.332	0.247	0.293	0.263	0.25	0.341	0.381	0.258	0.283	0.699	0.69	0.743	0.732	0.544	1.06	0.98	1.13	1.02
NCI-H2009	0.805	0.798	0.72	0.726	0.953	1.09	1.08	0.931	0.984	0.733	0.74	0.894	0.693	0.679	1.15	1.16	1.14	1.18
NCI-H647	0.448	0.27	0.167	0.179	0.119	0.309	0.169	0.32	0.14	0.627	0.403	0.627	0.498	0.584	1.15	1.11	1.23	1
NCI-H1993	0.607	–	0.515	0.633	0.824	–	0.737	0.749	0.476	0.45	–	0.721	0.672	0.509	0.763	0.642	0.682	0.708
LCLC-97TM1	0.252	0.205	0.226	0.182	–	–	0.676	0.765	0.875	–	0.316	0.953	0.681	0.687	0.268	0.256	0.19	0.2
EKVX	0.437	0.357	0.406	0.402	0.712	0.804	0.767	0.853	0.447	–	0.476	0.48	0.426	0.26	0.931	0.783	0.73	0.668
NCI-H596	0.943	0.778	0.882	0.905	–	0.879	1.04	0.944	0.756	–	0.538	0.606	0.711	0.537	0.528	0.396	0.615	0.475
NCI-H1975	0.789	0.705	0.776	0.744	0.256	0.122	0.239	0.212	0.206	0.71	0.676	0.732	0.716	0.662	0.67	0.591	0.707	0.704
A549	–	–	–	–	–	–	–	–	–	–	–	–	–	–	0.978	0.75	0.712	0.682
HCC-78	0.492	0.404	0.504	0.441	–	–	–	–	–	–	0.318	0.39	0.388	0.375	0.298	0.336	0.333	0.363
H3255	0.715	0.616	0.626	0.63	0.471	0.676	0.879	0.805	0.757	–	0.697	0.741	0.816	0.293	0.798	0.556	0.68	0.596
RERF-LC-KJ	0.48	0.561	0.515	0.481	1.13	1.25	1.16	1.2	0.797	0.543	0.632	0.673	0.647	0.601	0.743	0.764	0.853	0.883
HCC-44	1.12	0.909	0.976	0.864	–	0.716	1.14	0.965	1.06	1.07	1.11	1.16	1.16	0.916	0.792	0.817	0.865	0.892
NCI-H1650	0.423	0.477	0.499	0.423	0.19	0.202	0.198	0.2	0.2	0.474	0.578	0.554	0.516	0.664	–	–	–	–
NCI-H1648	0.581	0.611	0.364	0.524	–	–	–	–	–	–	0.271	0.389	0.587	0.287	–	–	–	–
SW 900	0.538	0.502	0.557	0.589	–	0.176	0.17	0.164	0.175	–	0.516	0.476	0.468	0.408	–	–	–	–
NCI-H1792	–	–	–	–	–	–	0.413	0.403	0.255	–	–	–	–	–	0.707	0.693	0.806	0.785
NCI-H2342	0.643	0.416	0.53	0.624	0.579	0.607	0.665	0.692	0.703	0.562	0.596	0.625	0.707	0.693	–	–	–	–
NCI-H1623	0.426	0.401	0.415	0.434	0.429	0.437	–	0.456	0.408	–	–	–	–	–	–	–	–	–
NCI-H1299	–	–	–	–	–	–	–	–	–	–	–	–	–	–	1.05	1.08	1.05	1.04
ChaGo-K-1	0.221	0.233	0.242	0.223	0.636	0.448	0.603	0.563	0.57	0.53	0.731	0.747	0.78	0.545	–	–	–	–
